Patent US10168342B2, “Lipid probes and uses thereof” (THE SCRIPPS RESEARCH INSTITUTE, priority 2015, dated 2019)
Where two headings read alike, the source gives them in different places.

Experiments:
[1] = biological target: T1, AEA-DA lipid probe targets in Neuro2a cells (Mus musculus, UniProt Q922Q8)
T1 sequence (Q922Q8 1-307): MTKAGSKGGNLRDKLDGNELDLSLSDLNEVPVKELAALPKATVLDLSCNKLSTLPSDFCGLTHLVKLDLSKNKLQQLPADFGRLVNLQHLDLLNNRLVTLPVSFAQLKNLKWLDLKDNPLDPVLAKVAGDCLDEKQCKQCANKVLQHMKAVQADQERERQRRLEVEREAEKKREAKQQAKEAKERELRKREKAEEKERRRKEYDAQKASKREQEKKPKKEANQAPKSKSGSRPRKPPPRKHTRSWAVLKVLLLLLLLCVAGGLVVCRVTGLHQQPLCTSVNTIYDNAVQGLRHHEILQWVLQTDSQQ

[2] = biological target: AEA-DA lipid probe targets in Neuro2a cells (Mus musculus, UniProt Q9D8N0)
AEA-DA lipid probe targets in Neuro2a cells (Mus musculus, UniProt Q9D8N0), sequence (Q9D8N0 whole entry): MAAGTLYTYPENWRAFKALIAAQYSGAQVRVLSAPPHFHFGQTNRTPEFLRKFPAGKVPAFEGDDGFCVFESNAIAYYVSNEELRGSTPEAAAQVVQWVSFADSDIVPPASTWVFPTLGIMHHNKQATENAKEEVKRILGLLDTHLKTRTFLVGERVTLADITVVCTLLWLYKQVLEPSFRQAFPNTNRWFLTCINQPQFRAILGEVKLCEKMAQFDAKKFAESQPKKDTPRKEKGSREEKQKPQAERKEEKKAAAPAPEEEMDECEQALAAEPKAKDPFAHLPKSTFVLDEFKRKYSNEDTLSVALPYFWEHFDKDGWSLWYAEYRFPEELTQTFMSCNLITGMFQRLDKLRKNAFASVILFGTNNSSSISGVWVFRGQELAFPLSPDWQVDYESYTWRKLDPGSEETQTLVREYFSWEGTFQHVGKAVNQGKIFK

[3] = biological target: T2, AEA-DA lipid probe targets in Neuro2a cells (Mus musculus, UniProt P43883)
T2 sequence (P43883 1-425): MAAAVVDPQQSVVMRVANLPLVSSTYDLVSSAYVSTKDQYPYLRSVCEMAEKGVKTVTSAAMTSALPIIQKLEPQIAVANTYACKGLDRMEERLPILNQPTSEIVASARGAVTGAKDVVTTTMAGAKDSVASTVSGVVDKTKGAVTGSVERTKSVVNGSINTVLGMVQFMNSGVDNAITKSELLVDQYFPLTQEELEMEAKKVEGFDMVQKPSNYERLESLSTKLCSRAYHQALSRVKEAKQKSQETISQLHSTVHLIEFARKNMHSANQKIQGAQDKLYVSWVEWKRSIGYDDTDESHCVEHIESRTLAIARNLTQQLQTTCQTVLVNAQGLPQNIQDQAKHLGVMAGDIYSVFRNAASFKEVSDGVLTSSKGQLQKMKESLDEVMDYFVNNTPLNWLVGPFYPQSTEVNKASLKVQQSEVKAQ

[4] = biological target: T3, AEA-DA lipid probe targets in Neuro2a cells (Mus musculus, UniProt Q80UU9); conditions: for SILAC ratio, PGRMC2 (Q80UU9): Neuro2a cells, AEA-DA probe
T3 sequence (Q80UU9 1-217): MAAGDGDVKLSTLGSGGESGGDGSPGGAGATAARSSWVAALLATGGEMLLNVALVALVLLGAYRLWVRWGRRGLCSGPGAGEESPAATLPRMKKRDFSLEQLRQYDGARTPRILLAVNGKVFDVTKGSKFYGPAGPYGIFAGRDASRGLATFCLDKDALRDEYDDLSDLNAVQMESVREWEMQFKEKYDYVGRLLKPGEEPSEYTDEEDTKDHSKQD

[5] = biological target: T4, AEA-DA lipid probe targets in Neuro2a cells (Mus musculus, UniProt Q9CPQ3); conditions: for SILAC ratio, TOMM22 (Q9CPQ3): Neuro2a cells, AEA-DA probe
T4 sequence (Q9CPQ3 1-142): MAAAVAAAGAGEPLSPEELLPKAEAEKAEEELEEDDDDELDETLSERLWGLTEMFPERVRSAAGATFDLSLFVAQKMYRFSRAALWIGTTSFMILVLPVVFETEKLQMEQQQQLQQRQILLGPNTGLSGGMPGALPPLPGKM

[6] = biological target: T5, AEA-DA lipid probe targets in Neuro2a cells (Mus musculus, UniProt Q80ZW2)
T5 sequence (Q80ZW2 22-207): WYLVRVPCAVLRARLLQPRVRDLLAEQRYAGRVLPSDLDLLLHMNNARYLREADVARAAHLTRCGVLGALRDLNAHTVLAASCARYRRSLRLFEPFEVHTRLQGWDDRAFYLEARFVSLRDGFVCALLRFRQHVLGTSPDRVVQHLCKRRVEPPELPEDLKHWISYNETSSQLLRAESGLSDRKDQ

[7] = biological target: T6, AEA-DA lipid probe targets in Neuro2a cells (Mus musculus, UniProt P55096)
T6 sequence (P55096 1-659): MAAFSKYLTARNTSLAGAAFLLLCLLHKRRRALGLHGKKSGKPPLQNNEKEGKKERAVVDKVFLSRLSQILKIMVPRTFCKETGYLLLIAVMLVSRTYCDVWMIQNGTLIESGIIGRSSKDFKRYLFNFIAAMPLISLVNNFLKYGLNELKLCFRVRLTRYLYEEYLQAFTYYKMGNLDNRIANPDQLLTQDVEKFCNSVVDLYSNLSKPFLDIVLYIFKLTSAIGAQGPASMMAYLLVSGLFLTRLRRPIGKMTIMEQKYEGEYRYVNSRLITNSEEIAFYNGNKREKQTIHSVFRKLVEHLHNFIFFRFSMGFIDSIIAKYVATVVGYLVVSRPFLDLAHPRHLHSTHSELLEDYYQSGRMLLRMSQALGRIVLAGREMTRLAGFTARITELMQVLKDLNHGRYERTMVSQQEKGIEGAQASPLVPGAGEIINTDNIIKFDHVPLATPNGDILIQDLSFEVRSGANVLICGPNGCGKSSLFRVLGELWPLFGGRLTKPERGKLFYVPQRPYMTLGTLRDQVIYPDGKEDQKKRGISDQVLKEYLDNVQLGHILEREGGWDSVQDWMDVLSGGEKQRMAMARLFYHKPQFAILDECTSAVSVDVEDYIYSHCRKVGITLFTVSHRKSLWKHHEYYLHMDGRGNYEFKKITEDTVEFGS

[8] = biological target: T7, AEA-DA lipid probe targets in Neuro2a cells (Mus musculus, UniProt Q9D379)
T7 sequence (Q9D379 1-455): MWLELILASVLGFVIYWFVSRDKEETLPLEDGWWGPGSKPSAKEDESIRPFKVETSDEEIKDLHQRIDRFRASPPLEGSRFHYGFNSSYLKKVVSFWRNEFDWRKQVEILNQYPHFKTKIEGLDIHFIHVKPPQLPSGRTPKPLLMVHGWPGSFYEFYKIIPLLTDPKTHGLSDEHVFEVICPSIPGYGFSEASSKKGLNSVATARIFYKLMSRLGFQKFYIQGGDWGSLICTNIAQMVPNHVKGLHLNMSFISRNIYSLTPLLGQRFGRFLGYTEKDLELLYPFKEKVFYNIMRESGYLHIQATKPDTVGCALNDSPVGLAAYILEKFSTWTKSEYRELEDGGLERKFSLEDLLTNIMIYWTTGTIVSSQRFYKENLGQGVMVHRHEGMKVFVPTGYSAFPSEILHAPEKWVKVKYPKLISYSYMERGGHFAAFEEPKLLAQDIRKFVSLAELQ

With `CCCCC/C=C\C/C=C\C/C=C\C/C=C\CCCC(=O)NCCO` [AEA, anandamide, reference compound] the “SILAC ratio Lrrc59” value ([1]; competitor 200 μM) was 1.6, the “SILAC ratio Eef1g” value ([2]; competitor 200 μM) was 1.4 and the “SILAC ratio, Plin2” value ([3]; competitor 200 μM) was 1.4. The “SILAC ratio, PGRMC2 (Q80UU9)” value ([4]; competitor 200 μM) was 2.0, the “SILAC ratio, Pgrmc2” value ([4]; competitor 200 μM) was 2.0 and the “SILAC ratio, TOMM22 (Q9CPQ3)” value ([5]; competitor 200 μM) was 1.4. The “SILAC ratio, Tomm22” value ([5]; competitor 200 μM) was 1.4, the “SILAC ratio Them6” value ([6]; competitor 200 μM) was 1.9 and the “SILAC ratio Abcd3” value ([7]; competitor 200 μM) was 1.5. The “SILAC ratio, Ephx1” value ([8]; competitor 200 μM) was 2.1.

For `C=CCN(C)CCCCCCOc1ccc(C(=O)c2ccc(Br)cc2)c(F)c1` [Ro 48-8071, reference compound], the “SILAC ratio Lrrc59” value ([1]; competitor 25 μM) was 1.2, the “SILAC ratio Eef1g” value ([2]; competitor 25 μM) was 0.9 and the “SILAC ratio, Plin2” value ([3]; competitor 25 μM) was 1.8. The “SILAC ratio, PGRMC2 (Q80UU9)” value ([4]; competitor 25 μM) was 1.3, the “SILAC ratio, Pgrmc2” value ([4]; competitor 25 μM) was 1.3 and the “SILAC ratio, TOMM22 (Q9CPQ3)” value ([5]; competitor 25 μM) was 1.0. For the same compound, the “SILAC ratio, Tomm22” value ([5]; competitor 25 μM) was 1.0, the “SILAC ratio Them6” value ([6]; competitor 25 μM) was 1.0 and the “SILAC ratio Abcd3” value ([7]; competitor 25 μM) was 0.9. The “SILAC ratio, Ephx1” value ([8]; competitor 25 μM) was 2.4.

With `CN1CCN(C(=O)c2c(-c3ccccc3)c3cc([N+](=O)[O-])ccc3n2C)CC1` [KML110, (1-Methyl-5-nitro-3-phenyl-1H-indol-2-yl)(4-methylpiperazin-1-yl)methanone] the “SILAC ratio Lrrc59” value ([1]; competitor 25 μM) was 1.3, the “SILAC ratio Eef1g” value ([2]; competitor 25 μM) was 1.4 and the “SILAC ratio, Plin2” value ([3]; competitor 25 μM) was 2.7. For the same compound, the “SILAC ratio, Pgrmc2” value ([4]; competitor 25 μM) was 1.6, the “SILAC ratio, Tomm22” value ([5]; competitor 25 μM) was 1.3 and the “SILAC ratio Them6” value ([6]; competitor 25 μM) was 1.3. For the same compound, the “SILAC ratio Abcd3” value ([7]; competitor 25 μM) was 1.2 and the “SILAC ratio, Ephx1” value ([8]; competitor 25 μM) was 3.4.

`O=C(/C=C/c1cccnc1)NCCCCC1CCN(C(=O)c2ccccc2)CC1` [FK-866, reference compound] was tested, and the “SILAC ratio Lrrc59” value ([1]; competitor 25 μM) was 1.2, the “SILAC ratio Eef1g” value ([2]; competitor 25 μM) was 1.5 and the “SILAC ratio, Plin2” value ([3]; competitor 25 μM) was 1.0. The “SILAC ratio, PGRMC2 (Q80UU9)” value ([4]; competitor 25 μM) was 1.2, the “SILAC ratio, Pgrmc2” value ([4]; competitor 25 μM) was 1.2 and the “SILAC ratio, TOMM22 (Q9CPQ3)” value ([5]; competitor 25 μM) was 1.1. The “SILAC ratio, Tomm22” value ([5]; competitor 25 μM) was 1.1, the “SILAC ratio Them6” value ([6]; competitor 25 μM) was 1.0 and the “SILAC ratio Abcd3” value ([7]; competitor 25 μM) was 1.3. For the same compound, the “SILAC ratio, Ephx1” value ([8]; competitor 25 μM) was 1.4.

For `CN1CCN(C(=O)c2[nH]c3ccc([N+](=O)[O-])cc3c2-c2ccccc2)CC1` [MJN228, (4-Methylpiperazin-1-yl)(5-nitro-3-phenyl-1H-indol-2-yl)methanone], the “SILAC ratio Lrrc59” value ([1]; competitor 10 μM) was 1.3, the “SILAC ratio Lrrc59” value ([1]; competitor 25 μM) was 1.5 and the “SILAC ratio Lrrc59” value ([1]; competitor 50 μM) was 1.5. The “SILAC ratio Lrrc59” value ([1]; competitor 100 μM) was 2.0, the “SILAC ratio Eef1g” value ([2]; competitor 10 μM) was 1.1 and the “SILAC ratio Eef1g” value ([2]; competitor 25 μM) was 1.1. For the same compound, the “SILAC ratio Eef1g” value ([2]; competitor 50 μM) was 1.0, the “SILAC ratio Eef1g” value ([2]; competitor 100 μM) was 1.3 and the “SILAC ratio, Plin2” value ([3]; competitor 10 μM) was 1.8. The “SILAC ratio, Plin2” value ([3]; competitor 25 μM) was 3.2, the “SILAC ratio, Plin2” value ([3]; competitor 50 μM) was 20.0 and the “SILAC ratio, Plin2” value ([3]; competitor 100 μM) was 20.0. The “SILAC ratio, PGRMC2 (Q80UU9)” value ([4]; competitor 25 μM) was 1.5, the “SILAC ratio, Pgrmc2” value ([4]; competitor 10 μM) was 1.2 and the “SILAC ratio, Pgrmc2” value ([4]; competitor 25 μM) was 1.5. The “SILAC ratio, Pgrmc2” value ([4]; competitor 50 μM) was 1.7, the “SILAC ratio, Pgrmc2” value ([4]; competitor 100 μM) was 2.0 and the “SILAC ratio, TOMM22 (Q9CPQ3)” value ([5]; competitor 25 μM) was 1.2. The “SILAC ratio, Tomm22” value ([5]; competitor 10 μM) was 1.1, the “SILAC ratio, Tomm22” value ([5]; competitor 25 μM) was 1.2 and the “SILAC ratio, Tomm22” value ([5]; competitor 50 μM) was 1.2. For the same compound, the “SILAC ratio, Tomm22” value ([5]; competitor 100 μM) was 1.8, the “SILAC ratio Them6” value ([6]; competitor 10 μM) was 1.2 and the “SILAC ratio Them6” value ([6]; competitor 25 μM) was 1.3. For the same compound, the “SILAC ratio Them6” value ([6]; competitor 100 μM) was 1.3, the “SILAC ratio Abcd3” value ([7]; competitor 10 μM) was 1.2 and the “SILAC ratio Abcd3” value ([7]; competitor 25 μM) was 1.5. The “SILAC ratio Abcd3” value ([7]; competitor 50 μM) was 1.3, the “SILAC ratio Abcd3” value ([7]; competitor 100 μM) was 1.2 and the “SILAC ratio, Ephx1” value ([8]; competitor 10 μM) was 2.5. The “SILAC ratio, Ephx1” value ([8]; competitor 25 μM) was 3.8, the “SILAC ratio, Ephx1” value ([8]; competitor 50 μM) was 8.2 and the “SILAC ratio, Ephx1” value ([8]; competitor 100 μM) was 11.5.
